Assays:
Homo sapiens [1] = species: Homo sapiens; experiment: Selectivity ratio of IC50 for human recombinant MMP2 catalytic domain to IC50 for human TACE catalytic domain
Homo sapiens [2] = species: Homo sapiens; experiment: Selectivity ratio of IC50 for human recombinant MMP13 catalytic domain to IC50 for human TACE catalytic domain
[3] = target: Disintegrin and metalloproteinase domain-containing protein 17 (Homo sapiens, UniProt P78536); experiment: Inhibition of human TACE catalytic domain expressed in CHO cells by FRET assay; assay type: cell-based
Disintegrin and metalloproteinase domain-containing protein 17, sequence (P78536 whole entry, the tested form may be a part): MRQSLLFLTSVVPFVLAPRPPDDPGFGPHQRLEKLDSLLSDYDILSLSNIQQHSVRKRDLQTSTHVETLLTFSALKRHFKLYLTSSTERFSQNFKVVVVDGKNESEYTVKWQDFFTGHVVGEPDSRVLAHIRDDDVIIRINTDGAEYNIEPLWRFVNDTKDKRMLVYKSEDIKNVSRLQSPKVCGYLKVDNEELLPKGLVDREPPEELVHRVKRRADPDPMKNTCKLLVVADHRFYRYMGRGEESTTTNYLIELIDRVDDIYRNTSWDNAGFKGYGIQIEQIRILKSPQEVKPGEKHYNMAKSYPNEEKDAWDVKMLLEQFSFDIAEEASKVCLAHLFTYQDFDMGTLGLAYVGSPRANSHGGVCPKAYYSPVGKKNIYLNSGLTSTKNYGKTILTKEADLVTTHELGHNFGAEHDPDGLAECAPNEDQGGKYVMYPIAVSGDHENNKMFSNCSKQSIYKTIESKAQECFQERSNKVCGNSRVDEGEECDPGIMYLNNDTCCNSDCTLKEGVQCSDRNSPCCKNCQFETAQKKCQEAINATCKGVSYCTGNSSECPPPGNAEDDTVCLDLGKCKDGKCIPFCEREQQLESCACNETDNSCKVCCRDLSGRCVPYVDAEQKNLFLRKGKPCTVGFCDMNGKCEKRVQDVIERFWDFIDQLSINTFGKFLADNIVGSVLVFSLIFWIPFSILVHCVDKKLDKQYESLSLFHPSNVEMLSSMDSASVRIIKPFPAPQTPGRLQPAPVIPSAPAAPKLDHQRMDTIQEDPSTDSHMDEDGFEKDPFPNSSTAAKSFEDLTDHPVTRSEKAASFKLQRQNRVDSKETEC

[4] = target: 72 kDa type IV collagenase (Homo sapiens, UniProt P08253); experiment: inhibition of human recombinant MMP2 catalytic domain
72 kDa type IV collagenase, sequence (P08253 whole entry, the tested form may be a part): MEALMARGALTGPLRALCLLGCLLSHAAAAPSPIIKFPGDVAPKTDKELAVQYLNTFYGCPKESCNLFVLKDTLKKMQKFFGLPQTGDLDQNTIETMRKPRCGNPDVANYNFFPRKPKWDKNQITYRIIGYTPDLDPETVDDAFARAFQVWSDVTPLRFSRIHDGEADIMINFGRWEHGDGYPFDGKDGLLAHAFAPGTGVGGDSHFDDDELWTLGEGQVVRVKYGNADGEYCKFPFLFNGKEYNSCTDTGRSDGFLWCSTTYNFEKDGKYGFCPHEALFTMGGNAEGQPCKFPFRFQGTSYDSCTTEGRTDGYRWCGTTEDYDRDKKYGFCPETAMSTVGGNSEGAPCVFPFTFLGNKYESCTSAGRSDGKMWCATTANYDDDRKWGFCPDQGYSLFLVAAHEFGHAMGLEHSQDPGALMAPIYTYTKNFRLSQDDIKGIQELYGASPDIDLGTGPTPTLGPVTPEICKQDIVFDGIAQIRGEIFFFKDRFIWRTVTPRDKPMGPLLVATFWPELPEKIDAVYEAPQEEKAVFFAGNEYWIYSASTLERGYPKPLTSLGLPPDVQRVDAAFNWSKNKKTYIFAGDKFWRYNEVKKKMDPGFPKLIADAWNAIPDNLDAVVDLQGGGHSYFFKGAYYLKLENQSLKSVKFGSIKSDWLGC

Collagenase 3 = Collagenase 3 (Homo sapiens, UniProt P45452); experiment: inhibition of human recombinant MMP13 catalytic domain
RAW264.7 = experiment: Inhibition of LPS-induced TNFalpha production in mouse RAW264.7 cells preincubated for 1 hrs before LPS challenge measured after 4 hrs by ELISA; assay type: functional, cell-based
Blood = experiment: Inhibition of LPS-induced TNFalpha production in human whole blood preincubated for 1 hrs before LPS challenge measured after 4 hrs by ELISA; assay type: functional, tissue-based
[5] = Selectivity for TACE over MMP13
[6] = target: Matrix metalloproteinase-9 (Homo sapiens, UniProt P14780); experiment: inhibition of human recombinant MMP9 catalytic domain
Matrix metalloproteinase-9, sequence (P14780 whole entry, the tested form may be a part): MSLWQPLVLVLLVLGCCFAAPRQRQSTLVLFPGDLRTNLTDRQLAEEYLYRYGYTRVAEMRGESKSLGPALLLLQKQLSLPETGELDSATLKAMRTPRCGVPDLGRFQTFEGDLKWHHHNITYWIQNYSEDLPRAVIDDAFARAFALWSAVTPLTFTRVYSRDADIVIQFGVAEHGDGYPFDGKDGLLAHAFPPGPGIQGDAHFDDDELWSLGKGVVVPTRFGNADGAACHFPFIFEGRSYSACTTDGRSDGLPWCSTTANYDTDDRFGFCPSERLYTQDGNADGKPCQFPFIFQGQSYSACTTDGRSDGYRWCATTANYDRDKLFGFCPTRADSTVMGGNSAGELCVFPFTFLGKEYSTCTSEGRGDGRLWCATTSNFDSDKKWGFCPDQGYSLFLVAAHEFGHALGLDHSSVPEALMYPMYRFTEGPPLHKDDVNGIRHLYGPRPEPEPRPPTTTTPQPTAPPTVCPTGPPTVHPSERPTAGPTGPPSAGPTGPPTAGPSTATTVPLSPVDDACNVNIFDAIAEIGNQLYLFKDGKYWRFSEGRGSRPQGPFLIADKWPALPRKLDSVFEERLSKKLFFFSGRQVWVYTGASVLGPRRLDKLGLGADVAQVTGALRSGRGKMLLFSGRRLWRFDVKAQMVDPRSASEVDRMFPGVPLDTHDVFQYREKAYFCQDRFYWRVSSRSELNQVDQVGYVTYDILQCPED

[7] = Selectivity for TACE over MMP1
[8] = Selectivity for TACE over MMP2
[9] = Selectivity for TACE over MMP14
[10] = Selectivity for TACE over MMP9

Row | SMILES | Ratio IC50 (Homo sapiens [1]) | Ratio IC50 (Homo sapiens [2]) | IC50 [3] [nM] | IC50 [4] [nM] | IC50 (Collagenase 3) [nM] | IC50 (RAW264.7) [nM] | IC50 (Blood) [nM] | Selectivity ratio [5] | IC50 [6] [µM] | Selectivity ratio [7] | Selectivity ratio [8] | Selectivity ratio [9] | Selectivity ratio [10]
1 | Cc1cc(COc2ccc(S(=O)(=O)C3(C(=O)NO)CCN(C)CC3)cc2)c2ccccc2n1 | > 90 | > 90 | 11 | 15100 | 1450 | 125 | 2400 |  |  |  |  |  | 
2 | Cc1cc(COc2ccc(S(=O)(=O)C3(C(=O)NO)CCNCC3)cc2)c2ccccc2n1 | > 90 | > 90 | 33 | > 15000 | 8620 | 334 | 2400 |  | > 12 |  |  |  | 
3 | Cc1cc(COc2ccc(S(=O)(=O)C3(C(=O)NO)CCN(C(=O)OC(C)(C)C)CC3)cc2)c2ccccc2n1 | > 90 | > 90 | < 1 | 2670 | 1110 | > 1000 | > 50000 |  |  |  |  |  | 
4 | Cc1cc(COc2ccc(S(=O)(=O)C3(C(=O)NO)CCN(S(=O)(=O)C(C)C)CC3)cc2)c2ccccc2n1 | > 90 | > 90 | 10 | 2140 | 926 | > 1000 | 14000 |  |  |  |  |  | 
5 | Cc1cc(COc2ccc(S(=O)(=O)C3(C(=O)NO)CCN(Cc4ccncc4)CC3)cc2)c2ccccc2n1 |  |  | 9 | 855 | 266 | 378 | 11000 |  |  |  |  |  | 
6 | Cc1cc(COc2ccc(S(=O)(=O)C3(C(=O)NO)CCN(C=O)CC3)cc2)c2ccccc2n1 | > 90 | > 90 | 2 | 1400 | 440 | 68 | 1300 |  | > 12 |  |  |  | 
7 | Cc1cc(COc2ccc(S(=O)(=O)C3(C(=O)NO)CCN(C(=O)c4ccccc4)CC3)cc2)c2ccccc2n1 | > 90 | > 90 | 1 | 516 | 204 | > 1000 | 28000 |  |  |  |  |  | 
8 | CC(=O)N1CCC(C(=O)NO)(S(=O)(=O)c2ccc(OCc3cc(C)nc4ccccc34)cc2)CC1 | > 90 | > 90 | 1 | 6960 | 1340 | 385 | 1500 |  |  |  |  |  | 
9 | Cc1cc(COc2ccc(S(=O)(=O)C3(C(=O)NO)CCN(S(C)(=O)=O)CC3)cc2)c2ccccc2n1 | > 90 | > 90 | 1.2 | 1740 | 393 | 345 | 2800 |  |  |  |  |  | 
10 | CCN(CC)C(=O)N1CCC(C(=O)NO)(S(=O)(=O)c2ccc(OCc3cc(C)nc4ccccc34)cc2)CC1 |  |  | 3 | 96 | 57 | > 1000 | > 50000 |  |  |  |  |  | 
11 | Cc1cc(COc2ccc(S(=O)(=O)C3(C(=O)NO)CCN(C(=O)c4ccncc4)CC3)cc2)c2ccccc2n1 | > 90 | > 90 | 2 | 1090 | 349 | 230 | 1900 |  |  |  |  |  | 
12 | Cc1cc(COc2ccc(S(=O)(=O)C3(C(=O)NO)CCN(Cc4ccc(Cl)c(Cl)c4)CC3)cc2)c2ccccc2n1 |  |  | 65 | 145 | 80 | > 1000 | > 50000 |  |  |  |  |  | 

Now from value to compound:

Row | Ratio IC50 (Homo sapiens [1]) | Ratio IC50 (Homo sapiens [2]) | IC50 [3] [nM] | IC50 [4] [nM] | IC50 (Collagenase 3) [nM] | IC50 (RAW264.7) [nM] | IC50 (Blood) [nM] | Selectivity ratio [5] | IC50 [6] [µM] | Selectivity ratio [7] | Selectivity ratio [8] | Selectivity ratio [9] | Selectivity ratio [10] | SMILES
13 | > 1000 | > 1000 | 1 | 1590 | 1900 |  |  |  |  |  |  |  |  | CC#CCOc1ccc(S(=O)(=O)CC2(C(=O)NO)CCNCC2)cc1
14 |  | < 10 | 149 |  | 72 |  |  |  |  |  |  |  |  | CC#CCOc1ccc(S(=O)(=O)C2(C(=O)NO)CCN(Cc3ccc(Cl)c(Cl)c3)CC2)cc1
15 |  |  |  |  | 59 | 400 | 2500 |  |  |  |  |  |  | CC#CCOc1ccc(S(=O)(=O)CC2(C(=O)NO)CCN(C(=O)c3ccccc3)CC2)cc1
16 |  | < 10 |  |  |  |  |  |  |  |  |  |  |  | CC#CCOc1ccc(S(=O)(=O)C2(C(=O)NO)CCNCC2)cc1
17 |  | < 10 |  |  |  |  |  | < 5 |  |  |  |  |  | CC#CCOc1ccc(S(=O)(=O)C2(C(=O)NO)CCN(C(C)=O)CC2)cc1
18 |  | < 10 |  |  |  |  |  |  |  |  |  |  |  | CC#CCOc1ccc(S(=O)(=O)C2(C(=O)NO)CCN(C(=O)OC(C)(C)C)CC2)cc1
19 |  |  | 2 |  |  | 490 | 8700 | > 75 |  | > 75 | > 75 | > 75 | > 75 | CC#CCOc1ccc(S(=O)(=O)CC2(C(=O)NO)CCN(C(C)=O)CC2)cc1
20 |  |  |  |  |  | 620 | 14000 |  |  |  |  |  |  | CC#CCOc1ccc(S(=O)(=O)CC2(C(=O)NO)CCN(C(=O)OC(C)(C)C)CC2)cc1
21 | > 90 | > 90 | 2 | 1240 | 415 | > 1000 | 14000 |  |  |  |  |  |  | Cc1cc(COc2ccc(S(=O)(=O)C3(C(=O)NO)CCN(C(=O)C(C)C)CC3)cc2)c2ccccc2n1
22 | > 90 | > 90 | 2 | 3610 | 835 | 240 | 2500 |  |  |  |  |  |  | CCNC(=O)N1CCC(C(=O)NO)(S(=O)(=O)c2ccc(OCc3cc(C)nc4ccccc34)cc2)CC1
23 |  | < 10 |  |  |  |  |  |  |  |  |  |  |  | CC#CCOc1ccc(S(=O)(=O)C2(C(=O)NO)CCN(C(=O)c3ccccc3)CC2)cc1

— ChEMBL document CHEMBL1136975, “Synthesis and activity of quinolinylmethyl P1' alpha-sulfone piperidine hydroxamate inhibitors of TACE” (Bioorg Med Chem Lett, 2009)
